Test results published in US6360588B1, “Materials and methods for the analysis of substances passing through a membrane” (priority 1998, dated 2002).

Experiment: diffusion through polydimethylsiloxane membrane (MAPI, electrospray mass spectrometry detection)
Assay type: physicochemical
Conditions: polydimethylsiloxane membrane 0.01 to 0.05 inches thick; result in words, curves in FIGS. 8-11
From the text: In operation, once the membrane and spacer are in place and the top portion 50 and bottom plate 56 are secured, a substance under study can be placed in contact with the first side of the membrane. Carrier fluid can be flowing through volume 64 and to a detection means. As the substance diffuses through the membrane and exits the second side of the membrane, it can be carried to the detection apparatus for analysis. In this way, an accurate time dependent curve can be generated as to the amounts of the substance under study exiting the second side of the membrane. This example illustrates the results from diffusion of a variety of substances through polydimethylsiloxane membrane obtained from PILLAR SCIENTIFIC, ranging in thickness from 0.01 inches to 0.05 inches. A mass spectrometer was used as a detection apparatus with electrospray ionization utilized to ionize the sample for detection in the mass spectrometer.

Compound	diffusion through the membrane (relative abundance exiting the second side as a function of time)
Clc1cccc(Cl)c1N=C1NCCN1 [clonidine]	clonidine diffusing through the membrane
CCOC(=O)c1ccc(O)cc1 [ethyl paraben]	diffusion of ethyl paraben through the polydimethylsiloxane membrane
COC(=O)c1ccc(O)cc1 [methyl paraben]	diffusion of methyl paraben through the polydimethylsiloxane membrane
CCCCOC(=O)c1ccc(O)cc1 [n-butyl paraben]	diffusion of n-butyl paraben through the polydimethylsiloxane membrane
